Measurements reported in patent US7858635B2 (priority 2005, dated 2010).
Like-named read-outs stand apart in the source and are kept apart here.

How the values were obtained:
M4 muscarinic receptor = biological target: T1, M4 muscarinic receptor (Homo sapiens, UniProt P08173); test: Functional mobilization of intracellular calcium (FLIPR, Fluo-3), M4-CHO cells; type: cell-based; settings: for Emax: read-out: M4 Efficacy
T1 construct: expressed in transfected cells; host or cells: CHO cells (M4-CHO, under puromycin, zeocin and blasticidin selection)
T1 sequence (P08173 1-479): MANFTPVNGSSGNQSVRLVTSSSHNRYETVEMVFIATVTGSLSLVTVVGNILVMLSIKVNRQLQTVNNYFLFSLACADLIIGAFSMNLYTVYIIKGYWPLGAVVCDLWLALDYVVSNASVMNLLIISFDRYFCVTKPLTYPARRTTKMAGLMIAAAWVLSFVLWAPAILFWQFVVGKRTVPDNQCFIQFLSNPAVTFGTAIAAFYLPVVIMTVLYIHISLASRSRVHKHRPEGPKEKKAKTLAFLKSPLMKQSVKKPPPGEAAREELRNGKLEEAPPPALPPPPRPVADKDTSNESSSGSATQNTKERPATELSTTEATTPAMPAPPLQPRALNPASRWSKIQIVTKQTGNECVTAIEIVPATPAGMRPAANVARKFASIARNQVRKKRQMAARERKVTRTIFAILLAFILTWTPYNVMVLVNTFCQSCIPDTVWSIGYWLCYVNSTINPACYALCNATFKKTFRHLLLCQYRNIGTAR
Summary of the method: (§1)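 CHO lines stably carrying the muscarinic subtype, dye-loaded with Fluo-3 at 37° C for 60-90 min, receive test compound in 0.5% DMSO. Agonist effects are read directly; antagonist effects against carbachol at EC80 after 15 min pre-incubation.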

M1 muscarinic receptor = biological target: T2, M1 muscarinic receptor (Homo sapiens, UniProt P11229); test: Functional mobilization of intracellular calcium (FLIPR, Fluo-3), M1-CHO cells; type: cell-based; settings: for Emax: 100% efficacy is the maximum response obtained with the Carbachol control, read-out: M1 Efficacy
T2 construct: expressed in transfected cells; host or cells: CHO cells (M1-CHO, under zeocin and G418 selection)
T2 sequence (P11229 1-460): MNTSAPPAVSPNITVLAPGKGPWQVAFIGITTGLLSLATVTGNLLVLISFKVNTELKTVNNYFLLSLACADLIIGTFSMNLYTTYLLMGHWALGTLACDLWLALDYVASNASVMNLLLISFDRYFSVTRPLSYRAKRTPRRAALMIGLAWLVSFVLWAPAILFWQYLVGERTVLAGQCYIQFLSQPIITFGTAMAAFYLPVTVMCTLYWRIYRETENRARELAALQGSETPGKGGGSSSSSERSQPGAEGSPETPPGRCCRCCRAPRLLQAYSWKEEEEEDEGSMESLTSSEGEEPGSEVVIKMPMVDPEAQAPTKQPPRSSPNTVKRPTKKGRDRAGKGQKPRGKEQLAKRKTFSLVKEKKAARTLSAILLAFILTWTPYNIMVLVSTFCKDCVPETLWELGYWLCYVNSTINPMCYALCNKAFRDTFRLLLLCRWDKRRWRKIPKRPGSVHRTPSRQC
Summary of the method: as §1

[1] = compound nos. 1-454, 100% efficacy is the maximum response obtained with the Carbachol control
[2] = compound nos. 1-454, M4-CHO cells, calcium mobilization
[3] = compound nos. 1-454, M1-CHO cells, calcium mobilization
[4] = compound nos. 455-509, 100% efficacy is the maximum response obtained with the Carbachol control

Row | SMILES | Emax (M4 muscarinic receptor; [1]) [%] | M4 Activity (M4 muscarinic receptor; [2]) | Emax (M1 muscarinic receptor; compound nos. 1-454) [%] | M1 Activity (M1 muscarinic receptor; [3]) | Emax (M4 muscarinic receptor; [4]) [%] | M4 Activity (M4 muscarinic receptor; compounds 455-509) | Emax (M1 muscarinic receptor; compound nos. 455-509) [%] | M1 Activity (M1 muscarinic receptor; compounds 455-509) | M4 Activity (M4 muscarinic receptor; compound nos. 1-454) | M4 Efficacy (M4 muscarinic receptor; [1]) | M1 Activity (M1 muscarinic receptor; compound nos. 1-454)
1 | Clc1ccc2c(c1)C1(CCN(C3CCOCC3)CC1)CN2 [compound 37] | > 70 | ++ (activity was measured to be between 0.1 μM and 4.0 μM) | 65 to 85 | +++ (activity was measured to be less than or equal to 0.7 μM) | – | – | – | – | – | – | –
2 | CCOC(=O)N1CCC(CN2CCC3(CC2)C(=O)Nc2ccccc23)CC1 [compound 319] | < 55 | + (activity was measured to be greater than or equal to 4.0 μM) | < 65 | ++ (activity was measured to be between 0.7 μM and 3.0 μM) | – | – | – | – | – | – | –
3 | CN(C)C(=O)N1CC2(CCN(C3CCN(c4cnc5ccccc5n4)CC3)CC2)c2ccccc21 [compound 497] | – | – | – | – | 25 to 100 | ++ (activity was measured to be between 2.0 μM and 5.0 μM) | > 100 | +++ (activity was measured to be less than or equal to 2.0 μM) | – | – | –
4 | CC(=O)NC1CC2(CCN(CC3CC4C=CC3C4)CC2)c2ccccc21 (stereo not drawn) [compound 180] | 55 to 70 | +++ (activity was measured to be less than or equal to 0.1 μM) | 65 to 85 | +++ (activity was measured to be less than or equal to 0.7 μM) | – | – | – | – | – | – | –
5 | CCOC(=O)N1C2CCC1CC(N1CCC3(CC1)C[C@H](NC(C)=O)c1ccccc13)C2 (stereo partly drawn) [compound 359] | < 55 | ++ (activity was measured to be between 0.1 μM and 4.0 μM) | < 65 | ++ (activity was measured to be between 0.7 μM and 3.0 μM) | – | – | – | – | – | – | –
6 | CCC1CCC(N2CCC3(CC2)C[C@H](NC(C)=O)c2ccccc23)CC1 (stereo partly drawn) [compound 367] | < 55 | + (activity was measured to be greater than or equal to 4.0 μM) | < 65 | + (activity was measured to be greater than or equal to 3.0 μM) | – | – | – | – | – | – | –
7 | CC(=O)NC1CC2(CCN(C[C@H]3C[C@H]4C=C[C@H]3C4)CC2)c2ccccc21 (stereo partly drawn) [compound 392] | – | – | – | – | – | – | – | – | + (activity was measured to be greater than or equal to 4.0 μM) | + (efficacy was calculated to be 55% or less) | +++ (activity was measured to be less than or equal to 0.7 μM)
8 | CCOC(=O)N1CCC(N2CCC3(CC2)CN(C(C)=O)c2ccc(-c4ccc(OC)cc4)cc23)CC1 [compound 193] | < 55 | + (activity was measured to be greater than or equal to 4.0 μM) | < 65 | + (activity was measured to be greater than or equal to 3.0 μM) | – | – | – | – | – | – | –
9 | CCOC(=O)N1CCC(N2CCC3(CC2)CN(C(=O)c2cccc(OC)c2)c2ccc(F)cc23)CC1 [compound 45] | 55 to 70 | +++ (activity was measured to be less than or equal to 0.1 μM) | > 85 | +++ (activity was measured to be less than or equal to 0.7 μM) | – | – | – | – | – | – | –
10 | CN(C)C(=O)N1CC2(CCN(C3CCN(c4cncnc4)CC3)CC2)c2cc(F)ccc21 [compound 446] | 55 to 70 | – | 65 to 85 | – | – | – | – | – | +++ (activity was measured to be less than or equal to 0.1 μM) | – | ++ (activity was measured to be between 0.7 μM and 3.0 μM)
11 | Fc1ccc2c(c1)C1(CCN(C3CCCCC3)CC1)CN2 [compound 325] | < 55 | + (activity was measured to be greater than or equal to 4.0 μM) | 65 to 85 | + (activity was measured to be greater than or equal to 3.0 μM) | – | – | – | – | – | – | –
12 | CC(=O)N[C@H]1CC2(CCN(C3CCC(c4ccccc4)CC3)CC2)c2ccccc21 (stereo partly drawn) [compound 273] | > 70 | ++ (activity was measured to be between 0.1 μM and 4.0 μM) | > 85 | +++ (activity was measured to be less than or equal to 0.7 μM) | – | – | – | – | – | – | –
13 | CN(C)C(=O)N1CC2(CCN(C3CC4CCC(C3)N4c3cnccn3)CC2)c2ccccc21 (stereo not drawn) [compound 500] | – | – | – | – | 25 to 100 | ++ (activity was measured to be between 2.0 μM and 5.0 μM) | > 100 | +++ (activity was measured to be less than or equal to 2.0 μM) | – | – | –
14 | CCOC(=O)N1CCC(N2CCC3(CC2)CN(C(=O)c2ccc(F)cc2)c2ccc(F)cc23)CC1 [compound 77] | < 55 | ++ (activity was measured to be between 0.1 μM and 4.0 μM) | 65 to 85 | +++ (activity was measured to be less than or equal to 0.7 μM) | – | – | – | – | – | – | –
15 | Fc1ccc2c(c1)C1(CCN(C[C@@H]3C[C@H]4CC[C@H]3O4)CC1)CN2 [compound 429] | < 55 | – | < 65 | – | – | – | – | – | + (activity was measured to be greater than or equal to 4.0 μM) | – | ++ (activity was measured to be between 0.7 μM and 3.0 μM)
16 | CCOC(=O)N1CCC(N2CCC3(CC2)CN(C(C)=O)c2ccc(-c4ccccc4F)cc23)CC1 [compound 146] | > 70 | +++ (activity was measured to be less than or equal to 0.1 μM) | > 85 | +++ (activity was measured to be less than or equal to 0.7 μM) | – | – | – | – | – | – | –
